Measurements from publication PMC6690791 (Bioorganic & medicinal chemistry letters, 2019).
Like-named read-outs stand apart in the source and are kept apart here.

Columns and labels:
Assay type in all cases: biochemical
[1] = target: HCV genotype 1b NS3/4A protease (Hepatitis C virus genotype 1b, UniProt P26663); assay: fluorescence-based enzymatic assay, genotype 1b NS3/4A
[2] = target: R155K NS3/4A genotype 1b (Hepatitis C virus genotype 1b, UniProt P26663, R1181K); assay: enzymatic inhibition assay, drug-resistant mutant R155K of genotype 1b
[3] = target: HCV genotype 3a NS3/4A protease (Hepatitis C virus genotype 3a, UniProt Q81258); assay: enzymatic inhibition assay, genotype 3a NS3/4A
[4] = target: A156S NS3/4A genotype 1b (Hepatitis C virus genotype 1b, UniProt P26663, A1182S); assay: enzymatic inhibition assay, drug-resistant mutant A156S of genotype 1b
[5] = target: V36M NS3/4A genotype 1b (Hepatitis C virus genotype 1b, UniProt P26663, V1062M); assay: enzymatic inhibition assay, drug-resistant mutant V36M of genotype 1b

| IC50 [1] | SMILES | inhibitory activity (IC50) [2] | also measured |
| --- | --- | --- | --- |
| 2 to 5 µM | Cc1ccc(S(=O)(=O)Nc2ccccc2C(=O)Nc2nc3c(C)cc(C)cc3s2)cc1 [F0325–0086] |  |  |
| 2 to 5 µM | Cc1ccc(S(=O)(=O)Nc2ccccc2C(=O)Nc2nc3ccc4ccccc4c3s2)cc1 [F0325–0092] |  |  |
| 5 to 10 µM | Cc1ccc(S(=O)(=O)Nc2ccccc2C(=O)Nc2nc3c(ccc4ccccc43)s2)cc1 [F0325–0093] |  |  |
| 2 to 5 µM | Cc1ccc(S(=O)(=O)Nc2ccccc2C(=O)Nc2nc3ccc4sc(C)nc4c3s2)cc1 [F0725–0019] |  |  |
| 10 to 100 µM | Cc1ccc(S(=O)(=O)Nc2ccccc2C(=O)Nc2nc3c(Br)cccc3s2)cc1 [F1822–0567] |  |  |
| 5 to 10 µM | Cc1c(Cl)cccc1NC(=O)Cc1csc(NS(=O)(=O)c2ccccc2)n1 [F2322–0877] |  |  |
|  | Cc1cc(NC(=O)Cc2csc(NS(=O)(=O)c3ccccc3)n2)ccc1Br [F2322–0885] |  | IC50 ([3]; genotype 3a NS3/4A): did not have any effect |
| 5 to 10 µM | CSc1cccc(NC(=O)Cc2csc(NS(=O)(=O)c3ccccc3)n2)c1 [F2322–0904] |  |  |
| 10 to 100 µM | CSc1cccc2sc(NC(=O)c3ccccc3NS(=O)(=O)c3ccc(C)cc3)nc12 [F2730–0247] |  |  |

| SMILES | IC50 [1] | inhibitory activity (IC50) [2] | also measured |
| --- | --- | --- | --- |
| Cc1ccc(S(=O)(=O)Nc2ccccc2C(=O)Nc2nc(-c3cc(Cl)ccc3Cl)cs2)cc1 [F0325–0125] | < 2 µM | did not retain activity |  |
| Cc1ccc(S(=O)(=O)Nc2ccccc2C(=O)Nc2nc3c(cc4c5c(cccc53)CC4)s2)cc1 [F0816–0111] | 2 to 5 µM | did not retain activity |  |
| Cc1ccc(S(=O)(=O)Nc2ccccc2C(=O)Nc2nc3c(Cl)ccc(Cl)c3s2)cc1 [F1813–0710] | < 2 µM | maintains its activities | IC50 [3]: 14 µM; inhibitory activity (IC50) [4]: maintains its activities; inhibitory activity (IC50) [5]: maintains its activities |
| Cc1ccc(S(=O)(=O)Nc2ccccc2C(=O)Nc2nc3c(C)ccc(Cl)c3s2)cc1 [F1813–0711] | 5 to 10 µM | did not retain activity |  |
